# Active and inactive are the calls of the source.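 Rule for the calls: active = maximal inhibition of the USP30 enzyme reaching 30% or more across the dose series; inactive = the rest.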
# Biological target: Ubiquitin carboxyl-terminal hydrolase 30 (Homo sapiens) (UniProt Q70CQ3)
# Assay: inhibitors of ubiquitin-specific protease 30 deubiquitylating enzyme, concentration dependence, in vitro biochemical, validation of primary hits (AID 1645865)
# Conditions: purified USP30, Ub-rhodamine cleavage, fluorescence, 2 h
# Chain of Ubiquitin carboxyl-terminal hydrolase 30 (Homo sapiens) (Q70CQ3 whole entry, looked up): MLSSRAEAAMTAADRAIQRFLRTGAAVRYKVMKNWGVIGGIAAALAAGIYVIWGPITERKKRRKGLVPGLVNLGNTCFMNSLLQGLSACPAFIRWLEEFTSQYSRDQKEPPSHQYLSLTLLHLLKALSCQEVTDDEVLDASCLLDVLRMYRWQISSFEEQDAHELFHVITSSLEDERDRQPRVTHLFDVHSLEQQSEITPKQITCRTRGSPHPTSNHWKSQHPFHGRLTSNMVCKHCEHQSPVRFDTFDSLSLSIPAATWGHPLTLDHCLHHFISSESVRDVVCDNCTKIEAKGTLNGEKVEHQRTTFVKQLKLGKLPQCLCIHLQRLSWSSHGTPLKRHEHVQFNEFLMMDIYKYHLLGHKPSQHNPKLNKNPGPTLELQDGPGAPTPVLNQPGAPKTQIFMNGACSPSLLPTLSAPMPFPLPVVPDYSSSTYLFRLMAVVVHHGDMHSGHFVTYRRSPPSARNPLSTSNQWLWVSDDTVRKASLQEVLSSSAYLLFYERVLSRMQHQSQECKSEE
row,SMILES,IC50
1,CC[C@@]1(O)C[C@H](OC2CC(N(C)C)C(OC3CC(O)C(OC4CCC(=O)C(C)O4)C(C)O3)C(C)O2)c2c(cc3c(c2O)C(=O)c2c(O)ccc(O)c2C3=O)[C@H]1C(=O)OC (some centres not stated),> 50 µM (inactive)
2,O=C(Nc1cccc(C(F)(F)F)c1)c1cc2c(s1)-c1ccccc1OC2,2.13 µM
3,CCOC(=O)C1CCN(C(=O)c2ccc3c(c2)NC(=O)C2CCCN32)CC1 (configuration not stated),> 50 µM (inactive)
4,Cc1cnc2nc3c(cc2c1)CN(CCc1ccc(Cl)cc1)CC3,> 50 µM (inactive)
5,O=C(Cn1c(-c2ccccc2)ncc(C(=O)NC2CC2)c1=O)Nc1ccccc1,14.4 µM
6,Fc1ccccc1Cc1nc(-c2ccc3nncn3c2)no1,> 50 µM (inactive)
7,CCOC(=O)c1ccc(NC(=O)Cn2c(=O)n(CC(=O)NCc3ccco3)c(=O)c3ccccc32)cc1,1.01 µM
8,Cc1cc(C)cc(N(CCC(=O)Nc2ccc(N3CCOCC3)cc2)S(=O)(=O)c2ccc(Cl)cc2)c1,12.3 µM
9,CC(=O)c1cccc(NC(=O)c2ccc(-c3csc(C)n3)cc2)c1,> 50 µM (inactive)
10,COc1ccc(NC(=O)C2c3ccccc3C(=O)N(C3CCCC3)C2c2cccs2)cc1OC (configuration not stated),36.2 µM
11,c1ccc(CCN2CCc3nc4cccnc4cc3C2)nc1,> 50 µM (inactive)
12,O=C(COc1ncnc2ccccc12)Nc1ccc2c(c1)OC1(CCCC1)O2,42.2 µM
13,COc1ccc(-c2cc3nc([C@H](C)NC(=O)Cc4cccc(F)c4)nn3cn2)cc1,3.92 µM
14,COCCn1c(=O)[nH]c2cc(C(=O)NCCNc3ccc([N+](=O)[O-])cc3C#N)ccc2c1=O,2.35 µM
15,CCc1ccc(-n2c(=O)c3ccccc3n(CC(=O)NCCC3=CCCCC3)c2=O)cc1,6.68 µM
16,CC1Cc2ccccc2N1C(=O)Cn1c(=O)cc(O)c2ccccc21 (configuration not stated),> 50 µM (inactive)
17,CC(C)N(C(=O)Cn1c(=O)[nH]c2ccccc21)c1ccccc1,> 50 µM (inactive)
18,Cc1cccc(CNC(=O)c2ccc(-c3nnc(-c4cccc(C)c4)o3)cc2)c1,5.57 µM
19,Cc1ccc(-c2c(C(=O)Nc3ccc(S(N)(=O)=O)cc3)oc(=O)c3ccccc23)cc1,29.2 µM
20,CCc1cc2c(=O)[nH]c(Cc3ccc(OC)cc3)nc2s1,40.3 µM
21,COc1ccc(NC(=O)COc2ccc3ccc(=O)oc3c2)cc1,34.8 µM
22,Cc1noc(C)c1COc1cccc(C(=O)Nc2cc(Cl)ccc2-n2cncn2)c1,> 50 µM (inactive)
23,Cc1ccn(-c2ccc(NC(=O)c3ccccc3Sc3ccccc3C#N)cc2)n1,34.9 µM
24,Cc1cccc(NC(=O)c2ccn(COc3ccc(F)cc3F)n2)c1C,> 50 µM (inactive)
25,O=C(COc1cc([N+](=O)[O-])cc2cccnc12)NCCC1=CCCCC1,28.3 µM

row,SMILES,IC50
1,CCCOc1ccc(C(=O)Nc2ccc(S(=O)(=O)Nc3cc(C)nc(C)n3)cc2)cc1,> 50 µM (inactive)
2,COc1ccc(NC(=O)COc2cc(CSc3ccccc3)ncc2OC)cc1,25.7 µM
3,Cc1ccc(-c2nc(-c3cccs3)cc(C(F)(F)F)c2C#N)cc1,> 50 µM (inactive)
4,CCCCN1CC(C(=O)Nc2ccc(C(=O)Nc3ccc(F)c(Cl)c3)cc2)CC1=O (configuration not stated),47.5 µM
5,CCOc1ccc(NC(=O)c2nc3c(=O)[nH]c4cc(C)ccc4n3n2)cc1,> 50 µM (inactive)
6,COc1ccc(CCNC(=O)c2noc3c2CCc2sccc2-3)cc1OC,39.9 µM
7,Cc1ccccc1NC(=O)c1ccc(N2CCCCC2)nn1,> 50 µM (inactive)
8,Cc1cc(C)cc(-n2ccnc(SCC(=O)Nc3cccc(Cl)c3)c2=O)c1,7.47 µM
9,Cc1ccc(-n2c(-c3ccccc3)cn3c4c(=O)[nH]c(=O)n(C)c4nc23)cc1Cl,0.222 µM
10,O=C(c1cn(-c2cccc(F)c2)nn1)N1CCc2ccccc2C1,16.9 µM
11,Cc1cc(N2CCOCC2)nc2ccc(NC(=O)CCC(=O)Nc3ccc(F)cc3)cc12,10.3 µM
12,c1ccc(Cc2nn3c(-c4cccnc4)nnc3c3ccccc23)cc1,0.654 µM
13,O=C(CNc1ccc(F)c(Cl)c1)Nc1ccc2c(c1)OCCO2,> 50 µM (inactive)
14,O=C(CCc1c[nH]c2ccccc12)Nc1ccc(N2CCOCC2)cc1,25.1 µM
15,Cc1ccccc1C(=O)OCCN1C(=O)c2cccc3c(N4CCOCC4)ccc(c23)C1=O,> 50 µM (inactive)
16,CC(C)c1cc(NCc2ccccc2)n2nc(-c3cccnc3)nc2n1,19.7 µM
17,FC(F)(F)c1cccc(CSc2ccc3nnc(-c4ccccn4)n3n2)c1,14.9 µM
18,CCc1nc2cc(NC(=O)c3cccc(N4CCCC4=O)c3)ccc2n1C,> 50 µM (inactive)
19,CC1=C2C(=NCCN1)C(=O)N(c1ccccc1)C2c1cccnc1 (configuration not stated),> 50 µM (inactive)
20,Cc1c(C)n(-c2ccc(Br)cn2)c2ncnc(NCCCO)c12,25.4 µM
21,CCc1nc(N2CCCC2=O)sc1C(=O)Nc1cccc(C(C)=O)c1,> 50 µM (inactive)
22,O=C(COC(=O)c1ccc(CN2CCCC2=O)cc1)c1ccc2c(c1)OCCO2,> 50 µM (inactive)
23,Cc1ccc(-n2cc(C(=O)NCc3cccnc3)nn2)cc1C,21.6 µM
24,O=c1ccc(-c2noc(-c3ccc4cc[nH]c4c3)n2)c[nH]1,> 50 µM (inactive)
25,COc1ccc(-c2cc(N3CCC(NC(=O)c4ccccc4)C3)n[nH]2)cc1 (configuration not stated),19.8 µM

row,SMILES,IC50
1,COc1ccc(-c2nonc2NC(=O)C(c2ccccc2)c2ccccc2)cc1OC,> 50 µM (inactive)
2,COc1cccc(N2CCN(c3ccc4nnc(CCC(=O)N5CCc6ccccc6C5)n4n3)CC2)c1,39.2 µM
3,Cc1cccc(C(=O)Nc2ccc3c(c2)nc(CSc2nccc(C)n2)n3C)c1,> 50 µM (inactive)
4,O=c1sc2ccccc2c(=O)n1Cc1cccc(C(F)(F)F)c1,> 50 µM (inactive)
5,COc1ccc(NC(=O)Cn2cc(C(=O)c3ccc(F)cc3)c(=O)c3cc(C)ccc32)cc1,20.7 µM
6,COCCNC(=O)c1cc(-c2cn(-c3ccccn3)c(C)n2)n2ccccc12,> 50 µM (inactive)
7,O=C(Cc1noc2ccccc12)NCC(=O)Nc1ccc(Cl)cc1,21.6 µM
8,Cc1ccc(NC(=O)c2ccc(Nc3nnc(C)c4ccccc34)cc2)cc1,43.2 µM
9,COc1ccc(S(=O)(=O)N(C)Cc2cccs2)cc1OC,> 50 µM (inactive)
10,CCOC(=O)c1ccc(NC(=O)C[n+]2cc(-c3ccc(Cl)cc3)n3c2CCC3)cc1,38.5 µM
11,Cc1ccc(-c2cn(CC(=O)N3CCN(c4ccccn4)CC3)c(=O)o2)cc1,12.3 µM
12,CCc1cccc2c(C(=O)COc3ccc(C#N)cc3)c[nH]c12,11.3 µM
13,O=C(Nc1ccc2c(c1)N(C(=O)C1CCCC1)CC2)c1c(F)cccc1F,24.2 µM
14,O=C(Cn1cnc2c(oc3ccccc32)c1=O)NCc1ccccc1Cl,35.9 µM
15,COc1ccccc1C(=O)NCC(c1ccc2c(c1)CCCN2C)N1CCCC1 (configuration not stated),> 50 µM (inactive)
16,O=C(Cn1c(=O)n(Cc2ccc3c(c2)OCO3)c(=O)c2ncccc21)c1ccc(Cl)cc1,32.1 µM
17,COCCN(C1CCN(CCc2ccc(Cl)cc2)CC1)S(=O)(=O)c1cccc2cccnc12,> 50 µM (inactive)
18,COC(=O)CC1CC23OC2(C(=O)c2c(O)cccc2C3=O)C(C)O1 (configuration not stated),> 50 µM (inactive)
19,Cc1ccc(C)c(CSC2=NCCN2C(=O)c2ccco2)c1,> 50 µM (inactive)
20,O=C(Nc1ccccc1Br)c1ccn(COc2ccccc2F)n1,14.8 µM
21,O=C(Cc1cccnc1)Nc1ccc(N2CCN(C3CCCCC3)C2=O)nc1,> 50 µM (inactive)
22,O=C(COc1ccc(S(=O)(=O)N2CCOCC2)cc1)N1CCC(Cc2ccccc2)CC1,49.5 µM
23,O=C(NCCc1ccco1)c1ccc(N2CCOc3ccccc32)s1,27.4 µM
24,C/C1=C\CCC(C)C(O)CC(O)C(C)C(O)CCC(C)C(O)CC2(O)OC(CC(OC(=O)CC(=O)O)CC(O)CC(O)CC(O)C(C)C(O)/C=C/C(C)C(C(C)CCCCCCCCN=C(N)N)OC1=O)CC(O)C2O (configuration not stated),> 50 µM (inactive)
25,CCOC(=O)c1ccc(NC(=O)Cn2c(=O)n(CC(=O)NCCc3ccc(OC)c(OC)c3)c(=O)c3sccc32)cc1,1.57 µM

row,SMILES,IC50
1,COc1ccc(CNc2nn3c(-c4cncc(OC)c4)cnc3s2)cc1,1.5 µM
2,CCOc1ccc(NS(=O)(=O)c2ccc(NC(=O)Nc3ccccc3)cc2)cc1,17.3 µM
3,CO/C1=C\C(C)=C/[C@@H](C)[C@@H](O)[C@@H](C)C/C(C)=C/C=C/[C@H](OC)[C@@H]([C@@H](C)[C@@H](O)[C@H](C)[C@@]2(O)C[C@@H](OC(=O)/C=C/C(N)=O)[C@H](C)[C@@H](C(C)C)O2)OC1=O,> 50 µM (inactive)
4,Cc1nc(Nc2c3ccccc3nc3ccccc23)sc1C,> 50 µM (inactive)
5,Cn1cccc1C(=O)N1CCCC2(C1)Nc1cccnc1NC2=NC1CCCC1 (configuration not stated),> 50 µM (inactive)
6,O=C(c1ccsc1)N1CCC2(C1)Nc1cccnc1NC2=NC1CCCC1 (configuration not stated),> 50 µM (inactive)
7,O=C1c2ccccc2NC2(C(=O)Nc3ccc(Br)cc32)N1c1ccccc1 (configuration not stated),> 50 µM (inactive)
8,Cc1ccc(NC(=O)C2CCN(c3cncnc3N3CCCC3)CC2)cc1,> 50 µM (inactive)
9,O=C(Nc1nnc2n1CCCS2)c1cc2ccccc2o1,> 50 µM (inactive)
10,COc1ccc(CCNC(=O)CCCn2c(=O)c3ccccc3n(CC(=O)OCc3ccccc3)c2=O)cc1OC,18.3 µM
11,COc1cccc(NC(=O)c2cnc3c(c2)c(=O)n(C)c(=O)n3C)c1,2.05 µM
12,O=C(COC(=O)C1CCCN1C(=O)C12CC3CC(CC(C3)C1)C2)c1ccc(Cl)cc1 (configuration not stated),6.49 µM
13,COc1ccc(OC)c(NC(=O)c2cc(Cl)ccc2OC)c1,1.59 µM
14,CC(=O)c1ccc(NC(=O)C2CCN(c3cncnc3N3CCCC3)CC2)cc1,> 50 µM (inactive)
15,Cc1cc(Cl)c2c(c1)[C@]1(C(=O)N2)N2CCC[C@H]2[C@@H](C(=O)c2cc3ccccc3o2)[C@]12C(=O)Nc1ccccc12,> 50 µM (inactive)
16,Nc1nc(OCc2ccccc2)c2[nH]c(/C=C/c3cccs3)nc2n1,35.6 µM
17,Cc1cccc(C(=O)OCC(=O)Nc2ccc3[nH]c(=O)[nH]c3c2)c1C,2.85 µM
18,CCCCn1c(=O)c(CCC(=O)OCC(=O)Nc2ccc3c(c2)OCCO3)nc2ccccc21,> 50 µM (inactive)
19,O=C(/C=C/c1c(F)cccc1Cl)N1CCc2ccccc2C1,> 50 µM (inactive)
20,N#C/C(=C\c1ccc(OCc2cccc(C(=O)O)c2)cc1)c1ccc(F)cc1,> 50 µM (inactive)
21,Cc1ccc(S(=O)(=O)N(C)C)cc1NC(=O)Cc1ccc(Cl)c(Cl)c1,> 50 µM (inactive)
22,CC(C)c1ccc(NC(=O)c2cc3ncc(Br)cn3n2)cc1,> 50 µM (inactive)
